Source: patent US9855277B2, “Use of 5H-dibenz/b,f/azepine-5-carboxamide derivatives for treating fibromyalgia” (BIAL—PORTELA & CA, S.A., priority 2009, dated 2018)

Legend:
Type in all cases: in vivo
Mice (NMRI) = test: Formalin paw test; conditions: 300 mg/kg p.o.
Procedure: The method, which detects analgesic activity, follows that described by Wheeler-Aceto et al (see […]-ACETO, H. & A., C. (1991), “Standardization of the rat paw formalin test for the evaluation of analgesics”, Psychopharmacology, 104, 35-44). Mice (NMRI) were given an intraplantar injection of 5% formalin (25 μl) into the posterior left paw. […] The time spent licking was counted for 15 minutes, beginning 15 minutes after injection of formalin. 10 mice were studied per group. The test was performed blind. ESL and carbamazepine (CBZ) were tested at the doses of 10, 30, 100 and 300 mg/kg p.o., and oxcarbazepine (OXC) and R-Lic were tested at the doses of 100 and 300 mg/kg p.o., administered 60 minutes before the test (i.e. 45 minutes before formalin), and compared with a vehicle control group in each experiment. Morphine (64 mg/kg p.o.), administered under the same experimental conditions, was used as reference substance.

[1] = Plasma bioanalysis in CCI mice after oral ESL; conditions: oral ESL 50-200 mg/kg
[2] = system: mice with chronic constriction nerve injury (CCI); test: Paw withdrawal threshold (von Frey filaments) in CCI mice; conditions: gabapentin 100 mg/kg p.o.
Procedure: The materials used were (as also indicated in FIGS. 1 and 2): • Vehicle: 0.5% hydroxy-propyl-methyl-cellulose (HPMC) in water, 5 ml/kg, p.o.; • 50 mg/kg, 100 mg/kg, 150 mg/kg and 200 mg/kg: ESL at 50, 100, 150 and 200 mg/kg, p.o.; • GP 100 mg/kg: gabapentin 100 mg/kg, p.o.
The potential analgesic effects of orally dosed ESL was investigated at doses of 50, 100, 150 and 200 mg/kg, on the paw withdrawal threshold (PWT) and these effects compared with those of the dose vehicle and gabapentin, the latter at 100 mg/kg, in a mouse model of chronic constriction nerve injury (CCI).
Each animal received a single oral dose of either ESL (50, 100, 150, or 200 mg/kg), or gabapentin (100 mg/kg in saline) or vehicle (5 ml/kg). Behavioural testing was then performed twice, at approximately 60 and 120 minutes post-dose, to investigate the effect of treatments.

## NC(=O)N1c2ccccc2C=Cc2ccccc21 [CBZ, carbamazepine, reference compound]
Mice (NMRI)
  licking in the formalin test at 300 mg/kg: abolished licking

## NC(=O)N1c2ccccc2C[C@H](O)c2ccccc21 [eslicarbazepine]
[1]
  plasma concentrations vs dose of ESL: positively correlated with the doses of ESL administered

## NCC1(CC(=O)O)CCCCC1 [gabapentin, reference compound]
[2]; 2 hour after dosing, P<0.05
  PWT in the contralateral limbs vs vehicle group: significantly higher
[2]; positive control
  PWT: significantly increased PWT
